In US20090054412A1, “Treatment of Sleep Disorders” (priority 2007, published 2009):

Tests used:
[1] = target: T1, rat GABAA receptors α2β2γ2 (Rattus norvegicus, UniProt P18508+P23576); assay: Stimulation of GABA (EC3-5)-elicited currents in Xenopus oocytes, two-electrode voltage clamp, α2β2γ2; assay type: cell-based
T1 construct: expressed in transfected cells; host or cells: Xenopus laevis oocytes, cRNA microinjected
From the text: (§1) 7-Chloro-3-(5-dimethylaminomethyl-[1,2,4]oxadiazol-3-yl)-5methyl-4,5-dihydro-imidazol[1,5,-a][1,4]benzodiazepine-6-one was used to test the effects of the compound of formula (II): […]
(§2) Similar procedures were chosen as for the investigation of other GABAA receptor subunit specific substances (e.g., Baur et al., 2005; Mol. Pharmacol. 68, 787-792).
(§3) Lobes of the ovary containing the follicles were obtained by surgical procedures from female Xenopus laevis. Follicles were singled out using a platinum loop. Fifty nL of cRNA solution at a ratio of αx:β2:γ2 of 1:1:5 (3.3-10 nM αx (x=1,2,3,5); 3.3-10 nM β2; 16.7-50 nM γ2) (Boileau et al., 2002; Neuropharmacology 43, 695-700) were microinjected into Xenopus follicles. Several hours after microinjection the follicles were freed of follicular layers and adhering connective tissue by a collagenase/hypertonic shock procedure (Sigel, 1987; J. Physiol.(Land) 386, 73-90). Oocytes were kept at constant 18° C. until measurement (1-4 days) in a modified Barth solution (88 mM NaCl, 1 mM KCl, 2.4 mM NaHCO3, 10 mM Hepes-NaOH (pH 7.5), 0.82 mM MgSO4×7H2O, 0.34 mM Ca(NO3)2×4H2O, 0.41 mM CaCl2×2H2O, 100 U Penicillin/mL, 100 μg Streptomycin/mL, sterile filtered).
(§4) Currents were measured using a home-built amplifier in combination with a xy-recorder or were digitized using a MacLab/200 (AD Instruments) and stored on a computer. Xenopus oocytes were voltage clamped using the two-electrode voltage clamp technique (electrode resistance about 0.8 MΩ) at −80 mV. The medium contained 90 mM NaCl, 1 mM KCl, 1 mM MgCl2, 1 mM CaCl2, 10 mM Na-Hepes (pH 7.4) and 0.5% DMSO.
(§5) GABA was applied for 20-50 seconds without or in combination with other drugs and a washout period of 4 minutes was allowed to ensure full recovery from desensitization, which was experimentally determined. The perfusion solution (6 mL/min) was applied through a glass capillary with an inner diameter of 1.35 mm, the mouth of which was placed about 0.4 mm from the surface of the oocyte. The rate of solution change under our conditions has been estimated 70% within less than 0.5 s (Sigel et al., 1990; Neuron 5, 703-711). The entire perfusion system and the assay chamber were cleaned between drug applications by washing with DMSO.
(§6) Data is given as mean±SD, except in the figures where data is shown for clarity as mean±SEM. Current stimulation was calculated as follows: stimulation (%)=((I(GABA+modulator)−I(GABA))/I(GABA))×100%, where I is the current amplitude. Where indicated, the stimulation was standardized to the stimulation by 1 μM diazepam (100%). To obtain FIGS. 1-4, values for current stimulation obtained at a given concentration of modulator at a given subunit combination were averaged. The data points were fitted with the equation stimulation=efficacy/(1+(potency/concentration of modulator)). The values given in the Tables (Summary) are obtained by fitting individual curves and subsequently averaging efficacy and potency.
(§7) Concentration response curves were also performed with oocytes expressing α2β2γ2, α3β2γ2, or α5β2γ2, after establishing the optimal concentration range as indicated above. […] Averaged data of the individual curves summarizing the effects of the compound of formula (II) are shown below for unstandardized and standardized stimulation.
(§8) Concentration response curves were also performed with oocytes expressing α2β2γ2, α3β2γ2, or α5β2γ2.
(§9) Current stimulation by diazepam was determined in each batch of oocytes as follows. GABA (EC3-5) was applied until a stable response was obtained. Subsequently, GABA was applied in combination with 1 μM diazepam.

[2] = target: T2, rat GABAA receptors α3β2γ2 (Rattus norvegicus, UniProt P18508+P20236); assay: Stimulation of GABA (EC3-5)-elicited currents in Xenopus oocytes, two-electrode voltage clamp, α3β2γ2; assay type: cell-based
T2 construct: expressed in transfected cells; host or cells: Xenopus laevis oocytes, cRNA microinjected
T2 sequence (P20236 29-493): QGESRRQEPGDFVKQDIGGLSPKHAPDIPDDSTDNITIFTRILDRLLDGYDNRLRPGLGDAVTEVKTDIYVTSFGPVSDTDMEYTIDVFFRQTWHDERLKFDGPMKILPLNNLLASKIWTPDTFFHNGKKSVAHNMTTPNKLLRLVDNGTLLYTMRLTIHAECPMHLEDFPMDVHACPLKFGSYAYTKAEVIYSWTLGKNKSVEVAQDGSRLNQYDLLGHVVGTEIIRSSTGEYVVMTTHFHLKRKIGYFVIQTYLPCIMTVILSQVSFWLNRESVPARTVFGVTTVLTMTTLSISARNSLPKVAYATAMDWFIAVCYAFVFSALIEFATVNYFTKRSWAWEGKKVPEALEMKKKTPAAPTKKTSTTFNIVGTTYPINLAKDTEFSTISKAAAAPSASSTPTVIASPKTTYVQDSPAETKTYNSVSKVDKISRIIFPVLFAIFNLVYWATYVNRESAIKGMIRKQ
T2 sequence (P63138 25-474 partner limits assumed): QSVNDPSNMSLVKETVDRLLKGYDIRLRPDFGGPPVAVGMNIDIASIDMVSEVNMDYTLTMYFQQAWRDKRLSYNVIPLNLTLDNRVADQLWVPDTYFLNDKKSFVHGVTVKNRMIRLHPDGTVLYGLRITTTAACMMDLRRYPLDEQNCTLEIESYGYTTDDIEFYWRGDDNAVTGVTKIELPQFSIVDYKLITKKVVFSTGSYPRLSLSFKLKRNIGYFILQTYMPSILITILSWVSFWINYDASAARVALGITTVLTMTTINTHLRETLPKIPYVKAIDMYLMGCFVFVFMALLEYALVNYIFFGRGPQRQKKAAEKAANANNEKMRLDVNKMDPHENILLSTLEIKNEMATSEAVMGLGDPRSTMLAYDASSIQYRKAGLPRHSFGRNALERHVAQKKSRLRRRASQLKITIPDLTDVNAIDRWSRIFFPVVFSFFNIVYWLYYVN
T2 sequence (P18508 39-466): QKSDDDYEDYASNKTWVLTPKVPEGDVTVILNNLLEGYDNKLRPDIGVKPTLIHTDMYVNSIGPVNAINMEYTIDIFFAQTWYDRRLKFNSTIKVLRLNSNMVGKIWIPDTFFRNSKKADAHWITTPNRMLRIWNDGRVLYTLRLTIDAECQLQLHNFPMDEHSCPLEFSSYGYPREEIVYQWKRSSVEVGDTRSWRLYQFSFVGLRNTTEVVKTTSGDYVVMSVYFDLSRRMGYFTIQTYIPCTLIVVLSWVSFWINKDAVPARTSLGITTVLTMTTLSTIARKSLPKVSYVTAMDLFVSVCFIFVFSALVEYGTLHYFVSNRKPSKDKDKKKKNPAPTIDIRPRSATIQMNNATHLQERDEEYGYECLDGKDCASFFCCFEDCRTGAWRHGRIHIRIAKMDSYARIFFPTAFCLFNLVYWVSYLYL
From the text: as §1, §2, §3, §4, §5, §6, §7, §8, §9

[3] = Example 3: randomized double-blind placebo-controlled crossover study in primary insomnia (PSG, patient reports, DSST, safety); assay type: in vivo, human
Method: A randomized, multicenter, double-blind, placebo-controlled crossover study was conducted to assess the efficacy of the 1.5 mg and 2.5 mg doses of the compound of formula (II) in the treatment of primary insomnia in adult patients. Specifically, one of the objectives of the study was to assess the efficacy of 1.5 mg and 2.5 mg doses on polysomnogram (PSG) and patient-reported measures of sleep. Also, the study was aimed at assessing the safety of 1.5 mg and 2.5 mg doses.
The study in this Example was performed for two consecutive nights with a 5-12 day washout between each period. The dosing was conducted 30 minutes before lights were turned out for the night via oral administration of a hard gelatine capsule containing the compound of formula (II) in powder form. PSG was taken for 8 hours from “lights out” on nights 1 and 2 of each treatment period. Centralized scoring of PSG was used. Testing for residual effects using the Digit Symbol Substitution Test (DSST) was performed at least 30 minutes after wake time (9 hours post dose).
[…] These subjects' typical bed time was between 9 pm and 1 am with at least 7 hours in bed. These subjects reported sleep latency of at least 45 minutes and total sleep time (TST) of not more than 6.5 hours in a sleep diary for at least 3 of 7 nights.
Mean wake time after sleep onset (WASO) of the patients was at least 40 minutes and mean TST was 240-420 minutes.

[4] = GABA EC3-5, mean±SD of individually fitted curves, read-out: Potency
[5] = standardized to stimulation by 1 μM diazepam (100%)
[6] = unstandardized current stimulation

T1 sequence (P23576 29-451): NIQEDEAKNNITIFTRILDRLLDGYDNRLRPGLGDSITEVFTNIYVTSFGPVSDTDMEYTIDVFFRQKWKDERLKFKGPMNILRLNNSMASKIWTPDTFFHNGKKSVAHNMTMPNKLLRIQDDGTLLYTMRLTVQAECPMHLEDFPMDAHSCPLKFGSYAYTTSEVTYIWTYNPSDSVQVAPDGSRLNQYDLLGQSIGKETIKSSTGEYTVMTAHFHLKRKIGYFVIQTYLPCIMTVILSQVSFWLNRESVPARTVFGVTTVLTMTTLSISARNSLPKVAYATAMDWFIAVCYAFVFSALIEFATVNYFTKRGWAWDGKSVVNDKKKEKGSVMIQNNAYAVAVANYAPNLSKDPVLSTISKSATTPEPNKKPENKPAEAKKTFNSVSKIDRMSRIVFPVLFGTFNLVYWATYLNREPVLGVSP
T1 sequence (P63138 25-474 partner limits assumed): as the sequence (P63138 25-474 partner limits assumed) above
T1 sequence (P18508 39-466): as the sequence (P18508 39-466) above

For CN(C)Cc1nc(-c2ncn3c2CN(C)C(=O)c2c(Cl)cccc2-3)no1 [compound of formula (II), 7-chloro-3-(5-dimethylaminomethyl-[1,2,4]oxadiazol-3-yl)-5-methyl-4,5-dihydro-imidazo[1,5-a][1,4]benzodiazepine-6-one], the EC50 [1, 4] was 62 ± 21 nM, the “Standardized Efficacy” value [1, 5] was 31 ± 6% (n = 5) and the Efficacy [1, 6] was 90 ± 16% (n = 5). For the same compound, the EC50 [2, 4] was 84 ± 15 nM, the “Standardized Efficacy” value [2, 5] was 41 ± 8% (n = 5) and the Efficacy [2, 6] was 171 ± 33% (n = 5). The “increase of TST compared to placebo” value ([3]; 1.5 mg) was 33.1 min, the “reduction of LPS compared to placebo” value ([3]; 1.5 mg) was 17.0 min and the “reduction of WASO compared to placebo” value ([3]; 1.5 mg) was 16.7 min. The “reduction of total wake time in hours 5-8” value ([3]; 1.5 mg) was 10.8 min, the “Number of Patients with Any Event” value ([3]; 1.5 mg (n = 71)) was 13 and the “Number of Patients with Headache” value ([3]; 1.5 mg (n = 71)) was 3. For the same compound, the “Number of Patients with Somnolence” value ([3]; 1.5 mg (n = 71)) was 2, the “Patients with Any Event, percent” value ([3]; 1.5 mg (n = 71)) was 18.3% and the “Patients with Headache, percent” value ([3]; 1.5 mg (n = 71)) was 4.2%. The “Patients with Somnolence, percent” value ([3]; 1.5 mg (n = 71)) was 2.8%, the safety and tolerability ([3]; 1.5 mg and 2.5 mg) was “safe and well-tolerated” and the “WASO in the second half of the night (5-8 hours after lights out)” value ([3]; 1.5 mg and 2.5 mg, compared to placebo, p<0.0001) was “reduced WASO”. The “patient-reported residual sedation effects” value ([3]; 1.5 mg or 2.5 mg compared with placebo) was “no patient-reported residual sedation effects”, the “Adjusted mean LPS (min), p value” ([3]; 1.5 mg vs. placebo) was “p < 0.0001” and the “Adjusted mean TST (min), p value” ([3]; 1.5 mg vs. placebo) was “p < 0.0001”. The “Adjusted mean WASO (min), p value” ([3]; 1.5 mg vs. placebo) was “p < 0.0001”, the “Adjusted mean total wake time, 2nd half (min), p value” ([3]; 1.5 mg vs. placebo) was “p = 0.0008” and the “increase of TST compared to placebo” value ([3]; 2.5 mg) was 45.0 min. The “reduction of LPS compared to placebo” value ([3]; 2.5 mg) was 20.7 min, the “reduction of WASO compared to placebo” value ([3]; 2.5 mg) was 25.7 min and the “reduction of total wake time in hours 5-8” value ([3]; 2.5 mg) was 16.2 min. For the same compound, the “Number of Patients with Any Event” value ([3]; 2.5 mg (n = 71)) was 18, the “Number of Patients with Headache” value ([3]; 2.5 mg (n = 71)) was 6 and the “Number of Patients with Somnolence” value ([3]; 2.5 mg (n = 71)) was 4. The “Patients with Any Event, percent” value ([3]; 2.5 mg (n = 71)) was 25.4%, the “Patients with Headache, percent” value ([3]; 2.5 mg (n = 71)) was 8.5% and the “Patients with Somnolence, percent” value ([3]; 2.5 mg (n = 71)) was 5.6%. For the same compound, the “Adjusted mean LPS (min), p value” ([3]; 2.5 mg vs. placebo) was “p < 0.0001”, the “Adjusted mean TST (min), p value” ([3]; 2.5 mg vs. placebo) was “p < 0.0001” and the “Adjusted mean WASO (min), p value” ([3]; 2.5 mg vs. placebo) was “p < 0.0001”. The “Adjusted mean total wake time, 2nd half (min), p value” ([3]; 2.5 mg vs. placebo) was “p < 0.0001”, the “total time awake during each hour after dosing” value ([3]; 2.5 mg, hour 7 p 0.0577) was “statistically significant reduction each hour, except hour 7” and the REM sleep ([3]; 1.5 and 2.5 mg) was “only a small effect on REM sleep”. For the same compound, the patient-reported sleep quality ([3]; 1.5 and 2.5 mg) was “marked improvement in sleep quality”, the sleep architecture ([3]; 1.5 and 2.5 mg) was “equivalent to the natural sleep architecture” and the slow wave sleep ([3]; 1.5 and 2.5 mg) was “no impairment of slow wave sleep”. The “Digit Symbol Substitution Test (DSST) scores” value ([3]; 9 hours after dose, compared with placebo) was “only slightly lower”.
